# Assays:
# GPR164 (Or51e1, Olfr558) [1] = target: T1, GPR164 (Or51e1, Olfr558) (Mus musculus, UniProt Q8VGZ7); test: cAMP EIA in Or51e1-overexpressing HEK293 cells, single concentration […]; type: cell-based; parameters: HA-tagged Or51e1 in HEK293 cells, co-transfected with RTP1S or RTP4
# T1 sequence (Q8VGZ7 1-317): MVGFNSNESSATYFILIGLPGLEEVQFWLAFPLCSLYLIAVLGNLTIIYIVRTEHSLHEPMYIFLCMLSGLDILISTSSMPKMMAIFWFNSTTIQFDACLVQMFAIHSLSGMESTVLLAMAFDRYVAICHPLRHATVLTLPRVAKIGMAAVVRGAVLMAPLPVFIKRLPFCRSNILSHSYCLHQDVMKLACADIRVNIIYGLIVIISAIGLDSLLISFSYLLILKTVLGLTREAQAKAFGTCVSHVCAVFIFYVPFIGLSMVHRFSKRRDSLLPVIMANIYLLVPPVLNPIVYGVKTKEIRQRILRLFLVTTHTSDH
# GPR164 (Or51e1, Olfr558) [2] = target: T1, GPR164 (Or51e1, Olfr558); test: as above; type: cell-based; parameters: HA-tagged Or51e1 in HEK293 cells, active only when co-transfected with RTP1S
smiles,measurement,setting,value
"CCCC(=O)O [C4, butyrate]",intracellular cAMP response,"GPR164 (Or51e1, Olfr558) [1]",intracellular cAMP levels were upregulated by the treatment with butyrate or valerate (Fig. 1B)
"CCCCC(=O)O [C5, valerate]",intracellular cAMP response,"GPR164 (Or51e1, Olfr558) [1]",only SCFAs (butyrate and valerate) activated GPR164 in cells expressing RTP4 (Fig. 1B)
"CCCCCCCCCC(=O)O [C10, decanoate]","cAMP EIA in Or51e1-overexpressing HEK293 cells, single concentration 1 mM","GPR164 (Or51e1, Olfr558) [2]",GPR164 was activated by the stimulation with butyrate or decanoate when cells were co-transfected with both Or51e1 and RTP1S

# Source: PMC12678807, “The free fatty acid receptor GPR164 maintains intestinal homeostasis and barrier function” (EMBO Reports, 2025)
